Reference: patent US11168102B1, “Bicyclic heteroaryl compounds and uses thereof” (Revolution Medicines, Inc., priority 2019, dated 2021)

The molecules below were run on cellular pERK in PC-9 cells (EGFR Ex19Del) (assay: Potency assay: pERK (AlphaLISA SureFire Ultra p-ERK1/2) in PC-9 cells). Details: Homo sapiens, PC-9, 1 h, PC-9 cells (EGFR Ex19Del), 1 hour incubation, AlphaLISA SureFire Ultra p-ERK1/2; read-out: SOS1 pERK IC50.
Assay type: cell-based
For `CC(=O)N1CCC(c2cc3c(N[C@H](C)c4cc(C(F)(F)F)cc(N)n4)ncnc3n(C)c2=O)CC1` [Example 44, 6-(1-acetyl-4-piperidyl)-4-[1-[6-amino-4-(trifluoromethyl)-2-pyridyl]ethylamino]-8-methyl-pyrido[2,3-d]pyrimidin-7-one], the IC50 was 179 nM. For `CC(=O)N1CCC(O)(c2cc3c(N[C@H](C)c4cccc(C(F)F)c4F)ncnc3n(C)c2=O)CC1` [Example 28-8], the IC50 was 32.6 nM. `C[C@@H](Nc1ncnc2c1cc(C1(F)CCP(C)(=O)CC1)c(=O)n2C)c1cccc(C(F)F)c1F` (stereo partly drawn) [Example 29-9] gave an IC50 of 163 nM. `COC1(c2cc3c(N[C@H](C)c4cccc(C(F)F)c4F)ncnc3n(C)c2=O)CCN(C=O)CC1` [Example 32-60] was tested, and the IC50 was 21.1 nM. `COC1(c2cc3c(N[C@H](C)c4cccc(C(F)F)c4F)ncnc3n(C)c2=O)CCC2(CC1)CS(=O)(=O)C2` [Example 32-4] showed an IC50 of 9.29 nM. For `COC1(c2cc3c(N[C@H](C)c4cccc(C(F)F)c4F)ncnc3n(C)c2=O)CCCN(C(C)=O)CC1` (stereo partly drawn) [Example 32-39], the IC50 was 54.2 nM. `COC1(c2cc3c(N[C@H](C)c4cccc(C(F)F)c4F)ncnc3n(C)c2=O)CN(C)C1` [Example 32-8] gave an IC50 of 186 nM. In the case of `C[C@@H](Nc1ncnc2c1cc(C1=CCS(=O)(=O)CC1)c(=O)n2C)c1cccc(C(F)(F)C#N)c1F` [Example 41, 2-{3-[(1R)-1-{[6-(1,1-dioxo-3,6-dihydro-2H-1λ^6-thiopyran-4-yl)-8-methyl-7-oxo-7H,8H-pyrido[2,3-d]pyrimidin-4-yl]amino}ethyl]-2-fluorophenyl}-2,2-difluoroacetonitrile], the IC50 is reported as 4480 nM. `COC1(c2cc3c(N[C@H](C)c4cccc(C(F)F)c4F)ncnc3n(C)c2=O)CCN(C(C)=O)C2(CC2)C1` (stereo partly drawn) [Example 32-42] showed an IC50 of 355 nM. Molecule `C[C@@H](Nc1ncnc2c1cc(C(=O)N1CCC(O)(C(F)(F)F)CC1)c(=O)n2C)c1cccc(C(F)F)c1F` [Example 26-50] has an IC50 of 880 nM. `C[C@@H](Nc1ncnc2c1cc(C1(OC3COC3)CCS(=O)(=O)CC1)c(=O)n2C)c1cccc(C(F)F)c1F` [Example 32-57] gave an IC50 of 83.9 nM. `COc1ccc(COC2(c3cc4c(N[C@H](C)c5cccc(C(F)F)c5F)ncnc4n(C)c3=O)CC2)cc1` [Example 61, 4-[[(1R)-1-[3-(difluoromethyl)-2-fluoro-phenyl]ethyl]amino]-6-[1-[(4-methoxyphenyl)methoxy]cyclopropyl]-8-methyl-pyrido[2,3-d]pyrimidin-7-one] was tested, and the IC50 was 647 nM. With `COn1c(=O)c(C2CCS(=O)(=O)CC2)cc2c(N[C@H](C)c3cccc(C(F)F)c3F)ncnc21` [Example 53, 4-(4-{[(1R)-1-[3-(difluoromethyl)-2-fluorophenyl]ethyl]amino}-8-methoxy-7-oxo-7H,8H-pyrido[2,3-d]pyrimidin-6-yl)-1λ^6-thiane-1,1-dione] the IC50 was 36.7 nM. In the case of `C[C@@H](Nc1ncnc2c1cc(C1CCNCC1)c(=O)n2C)c1cccc(C(F)F)c1F` [Example 1-28], the IC50 is reported as 125 nM. Molecule `C[C@@H](Nc1ncnc2c1cc(C(=O)N1CC(N3CC(C)(O)C3)C1)c(=O)n2C)c1cccc(C(F)F)c1F` [Example 26-45] has an IC50 of 521 nM. With `C[C@@H](Nc1ncnc2c1cc(C1=CC[P@](C)(=O)CC1)c(=O)n2C)c1cccc(C(F)F)c1F` [Example 1-32] the IC50 was 93.1 nM. `C[C@@H](Nc1ncnc2c1cc(C(=O)N1CCOCC13CCOC3)c(=O)n2C)c1cccc(C(F)F)c1F` (stereo partly drawn) [Example 26-47] gave an IC50 of 585 nM. `CC(=O)N1CC2(C1)CN(C(=O)c1cc3c(N[C@H](C)c4cccc(C(F)F)c4F)ncnc3n(C)c1=O)C2` [Example 26-40] gave an IC50 of 453 nM. Work on `COC1(c2cc3c(N[C@H](C)c4cccc(C(F)F)c4F)ncnc3n(C)c2=O)C[C@@H]2C[C@H]1CN2C(C)=O` (stereo partly drawn) [Example 32-18] yielded an IC50 of 947 nM. `C[C@@H](Nc1ncnc2c1cc(C(=O)N1CCOC3(CCOC3)C1)c(=O)n2C)c1cccc(C(F)F)c1F` (stereo partly drawn) [Example 26-46] showed an IC50 of 322 nM. `C[C@H](Nc1ncnc2c1cc(C1=CCS(=O)(=O)CC1)c(=O)n2C)c1cccc(C(F)(F)C#N)c1F` [Example 41-1] was tested, and the IC50 was > 10000 nM. `C[C@@H](Nc1ncnc2c1cc(C1(F)CC3(C1)CS(=O)(=O)C3)c(=O)n2C)c1cccc(C(F)F)c1F` [Example 29-8] was tested, and the IC50 was 53.4 nM. For `C[C@@H](Nc1ncnc2c1cc(C1(O)CC3(C1)CS(=O)(=O)C3)c(=O)n2C)c1cccc(C(F)F)c1F` [Example 28-4], the IC50 was 83.7 nM. `COC1(c2cc3c(N[C@H](C)c4cccc(C(F)F)c4F)ncnc3n(C)c2=O)CCCS(=O)(=O)CC1` (stereo partly drawn) [Example 32-33] showed an IC50 of 85.9 nM. `C[C@@H](Nc1ncnc2c1cc(C(=O)N(C)c1cccnc1)c(=O)n2C)c1cccc(C(F)F)c1F` [Example 26-10] showed an IC50 of 2090 nM. Work on `CC(=O)N1CC=C(c2cc3c(N[C@H](C)c4cccc(C(C)(F)F)c4F)ncnc3n(C)c2=O)CC1` [Example 1-20] yielded an IC50 of 78.5 nM. `C[C@@H](Nc1ncnc2c1cc(C1CCS(=N)(=O)CC1)c(=O)n2C)c1cccc(C(F)F)c1F` (stereo partly drawn) [Example 67, 4-[[(1R)-1-[3-(difluoromethyl)-2-fluoro-phenyl]ethyl]amino]-6-(1-imino-1-oxo-thian-4-yl)-8-methyl-pyrido[2,3-d]pyrimidin-7-one] was tested, and the IC50 was 16.1 nM. For `CC(=O)N1CC[C@@](C#N)(c2cc3c(N[C@H](C)c4cccc(C(F)F)c4F)ncnc3n(C)c2=O)C1` [Example 36-11], the IC50 was 268 nM. Molecule `C[C@@H](Nc1ncnc2c1cc(C1(C#N)CN(S(C)(=O)=O)C1)c(=O)n2C)c1cccc(C(F)F)c1F` [Example 36-7] has an IC50 of 772 nM. Work on `CC(=O)N1CC(C#N)(c2cc3c(N[C@H](C)c4cccc(C(F)F)c4F)ncnc3n(C)c2=O)C1` [Example 36-3] yielded an IC50 of 181 nM. In the case of `CC1CN(C(=O)c2cc3c(N[C@H](C)c4cccc(C(F)F)c4F)ncnc3n(C)c2=O)C(C)CO1` (stereo partly drawn) [Example 26-23], the IC50 is reported as 275 nM. With `CO[C@]1(c2cc3c(N[C@H](C)c4cccc(C(F)F)c4F)ncnc3n(C)c2=O)C[C@H](C)N(C(C)=O)C1` [Example 32-49] the IC50 was 102 nM. Work on `C[C@@H](Nc1ncnc2c1cc(C1=CCS(=O)(=NC#N)CC1)c(=O)n2C)c1cccc(C(F)F)c1F` (single isomer, unassigned) [Example 45] yielded an IC50 of 29.1 nM. With `C[C@@H](Nc1ncnc2c1cc(C1(F)CCS(=O)(=NC3CC3)CC1)c(=O)n2C)c1cccc2c1OCC2(F)F` (stereo partly drawn) [Example 56-4] the IC50 was 50 nM. `C[C@@H](Nc1ncnc2c1cc(C(=O)N1CCCC13COC3)c(=O)n2C)c1cccc(C(F)F)c1F` [Example 26-14] gave an IC50 of 122 nM. `C[C@@H](Nc1ncnc2c1cc(C1=CCN(C3COC3)CC1)c(=O)n2C)c1cccc(C(F)F)c1F` [Example 1-22] was tested, and the IC50 was 416 nM. `C[C@@H](Nc1ncnc2c1cc(C1=CCCOC1)c(=O)n2C)c1cccc(C(F)F)c1F` [Example 1-6] gave an IC50 of 180 nM. `COC1(c2cc3c(N[C@H](C)c4cccc(C(F)F)c4F)ncnc3n(C)c2=O)CCN(C(=O)C2CC2)CC1` [Example 32-11] gave an IC50 of 34.5 nM. `C[C@@H](Nc1ncnc2c1cc(C(=O)N1CC3(CCOC3)C1)c(=O)n2C)c1cccc(C(F)F)c1F` [Example 26-15] was tested, and the IC50 was 256 nM. `COC1(c2cc3c(N[C@H](C)c4cccc(C(F)F)c4F)ncnc3n(C)c2=O)CCN(C(C)=O)C1` (stereo partly drawn) [Example 32-9] was tested, and the IC50 was 16.3 nM. For `Cc1nc(N[C@H](C)c2cccc(C(F)F)c2F)c2cc(N3CCOCC3)c(=O)n(C)c2n1` [Example 2-1], the IC50 was 112 nM. In the case of `C[C@@H](Nc1ncnc2c1cc(C1(F)CCC3(CC1)CS(=O)(=O)C3)c(=O)n2C)c1cccc(C(F)F)c1F` [Example 29-7], the IC50 is reported as 81.1 nM. `C[C@@H](Nc1ncnc2c1cc(C1(C#N)CCN(S(C)(=O)=O)C1)c(=O)n2C)c1cccc(C(F)F)c1F` (stereo partly drawn) [Example 36-4] was tested, and the IC50 was 91 nM.

Same assay, conditions: PC-9 cells (EGFR Ex19Del), 1 hour incubation, AlphaLISA SureFire Ultra p-ERK1/2; read-out: SOS1 pERK IC50
For `C[C@@H](Nc1ncnc2c1cc(C1(F)CCP(C)(=O)CC1)c(=O)n2C)c1cccc(C(F)F)c1F` (stereo partly drawn) [Example 29-10], the IC50 was 140 nM. Molecule `C[C@@H](Nc1ncnc2c1cc(C1(N)CCP(C)(=O)CC1)c(=O)n2C)c1cccc(C(F)F)c1F` (stereo partly drawn) [Example 31-11] has an IC50 of 575 nM. Molecule `C[C@@H](Nc1ncnc2c1cc(C1(C#N)CCS(=O)(=NC3CC3)CC1)c(=O)n2C)c1cccc(C(F)F)c1F` (single isomer, unassigned) [Example 58] has an IC50 of 271 nM. `C[C@@H](Nc1ncnc2c1cc(C1(C#N)CCS(=O)(=NC3CC3)CC1)c(=O)n2C)c1cccc(C(F)F)c1F` (stereo partly drawn) [Example 59, (1S,4s)-1-(cyclopropylimino)-4-(4-(((R)-1-(3-(difluoromethyl)-2-fluorophenyl)ethyl)amino)-8-methyl-7-oxo-7,8-dihydropyrido[2,3-d]pyrimidin-6-yl)hexahydro-1λ^6-thiopyran-4-carbonitrile 1-oxide] showed an IC50 of 28.8 nM. For `C[C@@H](Nc1ncnc2c1cc(C1(C#N)CCS(=O)(=O)C1)c(=O)n2C)c1cccc(C(F)F)c1F` (stereo partly drawn) [Example 36-14], the IC50 was 207 nM. With `C[C@@H](Nc1ncnc2c1cc(C1=CCS(=O)(=NC#N)CC1)c(=O)n2C)c1cccc(C(F)F)c1F` (single isomer, unassigned) [Example 46] the IC50 was 43.3 nM. Work on `CC1CC(c2cc3c(N[C@H](C)c4cccc(C(F)F)c4F)ncnc3n(C)c2=O)CCS1(=O)=O` (stereo partly drawn) [Example 33-8] yielded an IC50 of 54.7 nM. `C[C@@H](Nc1ncnc2c1cc(C1CCS(=O)(=NC3CC3)CC1)c(=O)n2C)c1cccc(C(F)F)c1F` (single isomer, unassigned) [Example 64-2] showed an IC50 of 494 nM. With `C[C@@H](Nc1ncnc2c1cc(C1CCS(=N)(=O)CC1)c(=O)n2C)c1cccc(C(F)F)c1F` (stereo partly drawn) [Example 35, (R)-4-((1-(3-(difluoromethyl)-2-fluorophenyl)ethyl)amino)-6-(1-imino-1-oxidohexahydro-1λ^6-thiopyran-4-yl)-8-methylpyrido[2,3-d]pyrimidin-7(8H)-one] the IC50 was 127 nM. In the case of `CC1CC(c2cc3c(N[C@H](C)c4cccc(C(F)F)c4F)ncnc3n(C)c2=O)CCS1(=O)=O` (stereo partly drawn) [Example 33-12], the IC50 is reported as 40.7 nM. `C[C@@H](Nc1ncnc2c1cc(C1(C#N)CCP(C)(=O)CC1)c(=O)n2C)c1cccc(C(F)F)c1F` (stereo partly drawn) [Example 36-13] was tested, and the IC50 was 81.2 nM.
